{"source": "paper PMC5354814", "about": "“In silico and in vitro drug screening identifies new therapeutic approaches for Ewing sarcoma” (Oncotarget, 2016)", "key": {"[1]": {"settings": "cited from earlier work"}, "Rhesus monkey lung": {"test_system": "Rhesus monkey lung", "parameters": "method as in ref 19 (a number printed in a supplementary file, which may have a reference list of its own: not looked up in the article's list)", "settings": "1.5 x 10^-4M; cited from earlier work"}, "[2]": {"parameters": "method as in ref 19 (a number printed in a supplementary file, which may have a reference list of its own: not looked up in the article's list)", "settings": "cited from earlier work"}, "human monocyte": {"test_system": "human monocyte", "parameters": "method as in ref 19 (a number printed in a supplementary file, which may have a reference list of its own: not looked up in the article's list)", "settings": "0.1 - 1.0 µg auranofin/mL; cited from earlier work"}, "[3]": {"assay": "Auranofin dose tolerance studies (maximum tolerated dose)", "assay_type": "in vivo, BALB/c mice", "description": "These findings led us to develop and assess injectable (i.v. and i.p.) formulations of auranofin. By defining maximum tolerated dose (MTD) following i.v. and i.p. administration of solution and suspension formulations of auranofin, our intent was to evaluate auranofin alone and in combination with ganetespib at MTD in mouse xenograft studies using the more convenient i.p. route of administration. Following administration of the solution formulation of auranofin i.v. and i.p., the maximum tolerated dose was estimated at 1 mg/kg and 6 mg/kg, respectively. Following a single i.p. suspension dose of auranofin, the maximum tolerated dose was 16 mg/kg. This dose was reduced to 12 mg/kg and dose tolerance was evaluated after 5 daily doses of auranofin suspension i.p. to determine the effects of the accumulation of gold in the blood due to the slow elimination of gold. Based on the i.p. suspension dose tolerance studies, the auranofin suspension formulation and dose level of 12 mg/kg was selected for evaluation in xenograft mouse studies.\nThe auranofin dose tolerance and pharmacokinetics study protocols were approved by the KU-Lawrence Institutional Animal Care and Use Committee (KU-IACUC). Subchronic dose tolerance studies were conducted in BALB/c mice to support the design of EWS mouse xenograft studies. By establishing the Maximum Tolerated Dose (MTD), we defined the upper limit of doses selected for EWS mouse xenograft and in vivo pharmacokinetics studies. Mice received a single dose of auranofin solution and suspension administered by i.v. and i.p. routes of administration. Following a starting dose of 1 mg/kg, doses were escalated in subsequent mice until intolerable drug-related adverse effects were observed. MTD was defined as the maximum dose that was not associated dose-limiting adverse effects in mice. The MTD was confirmed in a group of 3 mice. Mice were continuously monitored for up to 4 hours post-dose."}, "[4]": {"settings": "cited from earlier work", "remark": "listed apart in the source"}, "[5]": {"assay": "Blood gold pharmacokinetics after i.p. auranofin suspension with ganetespib pre-treatment", "assay_type": "in vivo, BALB/c mice", "description": "As indicated previously, auranofin is a complex of gold triethylphosphine and thioglucose tetraacetate. Gold comprises 29% of auranofin by weight. Auranofin is chemically and metabolically highly unstable in solution. […] Following oral administration of ^195Au auranofin to humans, 25% of administered ^195Au appears in plasma. Further, approximately 40% of absorbed gold distributes into erythrocytes with 60% found in plasma. As a result, and consistent with the extensive literature describing auranofin pharmacokinetics in animals and humans, we characterized the pharmacokinetics of i.p. auranofin in mice by quantifying blood gold concentrations as summarized in Table 4. Peak blood gold concentrations were 12.43 μg/mL in mice receiving auranofin suspension preceded by i.v. ganetespib. […]\nThe single-dose […] pharmacokinetics of gold were characterized in 36 BALB/c mice following administration of a single 12 mg/kg i.p. suspension dose of auranofin. […] Whole blood aliquots of 500 μL obtained from each of the three animals per time point were assayed using a validated inductively coupled plasma mass spectrometry (ICPMS) method to quantify blood gold concentration. Mean blood gold concentrations were determined for each blood collection time point. […]"}, "[6]": {"parameters": "method as in ref 19 (a number printed in a supplementary file, which may have a reference list of its own: not looked up in the article's list)", "settings": "0.625 - 10 mg gold/kg p.o.; cited from earlier work"}, "Hs 919.T.": {"test_system": "Hs 919.T.", "assay": "Hits validation, dose-response cell proliferation (CellTiter-Glo)", "assay_type": "cell-based", "settings": "control cell line, 12-point dose-response, mean ± SD", "protocol": "These drugs were chosen based on their known mechanisms and safety profiles. We also tested the synergy between these drug hits (Supplementary Figures S6–S11). […] We evaluated the anti-proliferation effect in combination treatments using the EWS and control cell lines.\nFor hits validation and combination study, cells were harvested and aliquoted into 384-well plates at concentrations of 750–1,500 cells per well in a total of 20 μl/well using a Matrix Wellmate (Thermo Scientific). Five μl of culture media containing either vehicles or drug were added to each well the next day (drug concentrations range from 1 nmol/L to 50 μmol/L). For combination study, selected drugs were archived in robotically accessible plates, to which media was added in preparation for addition to master plates by a Nimbus 96 liquid-dispensing workstation (Hamilton). Liquid transfers to dilution and assay plates were handled using the same workstation. Each 384-well master plate contained four 9 by 9 dose-matrix blocks, with eight serial two-fold dilutions (concentrations range from 7.8 nmol/L to 1 μmol/L). Additional wells were reserved for untreated, and vehicle-treated control wells. Cell proliferation was evaluated using Cell-Titer Glo® reagents (Promega). IC50 values were determined for each drug using SigmaPlot (Systat Software). The combination index values were calculated using SigmaPlot (Systat Software) and CompuSyn."}, "platelet": {"test_system": "platelet", "parameters": "method as in ref 19 (a number printed in a supplementary file, which may have a reference list of its own: not looked up in the article's list)", "settings": "10 µg/mL; cited from earlier work"}}}
{"compound": "CC(=O)OC[C@H]1O[C@@H]([S-])[C@H](OC(C)=O)[C@@H](OC(C)=O)[C@@H]1OC(C)=O.CCP(CC)CC.[Au+]", "note": "[Auranofin, auranofin]", "values": [{"measurement": "LD50", "setting": "[1]; Rat CD, F, PO", "result": 330, "unit": "mg/kg"}, {"measurement": "acute oral LD50", "setting": "[1]; adult rats", "result": 265, "unit": "mg/kg"}, {"measurement": "minimum lethal dose", "setting": "[1]; rats", "result": 30, "unit": "mg/kg"}, {"measurement": "lethality (LD50) in rats when given concomitantly with other drugs", "setting": "[1]; warfarin at usual human daily dose, clonidine, propoxyphene at five times, others at ten or twenty times", "result": "potentiated"}, {"measurement": "anti-human IgE-induced release of histamine and SRS-A", "setting": "Rhesus monkey lung", "result": "inhibition"}, {"measurement": "murine antibody production against SRBC", "setting": "[2]", "result": "inconsistent inhibition"}, {"measurement": "phagocytosis", "setting": "human monocyte", "result": "inhibited"}, {"measurement": "maximum tolerated dose", "setting": "[3]; solution formulation, i.p.", "result": 6, "unit": "mg/kg"}, {"measurement": "maximum tolerated dose", "setting": "[3]; solution formulation, i.v.", "result": 1, "unit": "mg/kg"}, {"measurement": "maximum tolerated dose", "setting": "[3]; suspension, single i.p. dose", "result": 16, "unit": "mg/kg"}, {"measurement": "teratogenic effects in pregnant mice", "setting": "[4]; 5 mg/kg/day", "result": "no ter atogenic"}, {"measurement": "embryotoxic or teratogenic effect in mice", "setting": "[4]; oral 0.2, 1 and 5 mg/kg/day, days 6-15 of pregnancy", "result": "no embryotoxic or teratogenic effect"}, {"measurement": "Trough gold concentration", "setting": "[5]; 24 hours following the fifth once daily i.p. dose of 12 mg/kg", "result": 23.9, "unit": "µg/mL"}, {"measurement": "Cmax", "setting": "[5]; single i.p. 12 mg/kg auranofin suspension, ganetespib pre-treatment", "result": 63.1, "unit": "µM"}, {"measurement": "suboptimal delayed hypersensitivity response", "setting": "[6]", "result": "stimulatory effect"}, {"measurement": "IC50", "setting": "Hs 919.T.", "result": "5.38 ± 0.89", "unit": "µM"}, {"measurement": "epinephrine-, ADP-, or collagen-induced platelet aggregation", "setting": "platelet", "result": "potent"}]}
